Experiments:
[1] = tested on: HN-Aβ complex (H1299 cell-conditioned media); assay: ELISA, HN found in a complex with Aβ in H1299 cell-conditioned media; assay type: binding, human; conditions: ATP 100 μM, 1 mM; increased levels, compared with A549 media; Fig. 5C,D
Method: Human NSCLC cell lines, A549 (ATCC CCL‐185) and H1299 (ATCC CRL‐5803), were purchased from the American Type Culture Collection (ATCC, Manassas, VA, USA). Cells were seeded as we reported earlier in 5 mL HyClone Dulbecco's modified Eagle's medium/nutrient mixture F‐12 (DMEM/F12) (GE Healthcare Life Sciences, Pittsburgh, PA, USA), supplemented with 10% Fetalgro bovine growth serum (FBS; RMBIO, Missoula, MT, USA), 50 U·mL^−1 penicillin, and […] streptomycin (Invitrogen, Life Technologies, Carlsbad, CA, USA) in 25‐cm^2 tissue culture flasks, and allowed to grow overnight in an incubator at 37 °C, 95% humidity, and 5% CO2. The cells were counted after trypan blue staining, with a hemocytometer.
ELISAs were carried out as we previously reported. […] TBST was then used to wash the wells 4× before proceeding in one of two ways: (a) biotinylated samples were analyzed by adding 100 µL streptavidin–HRP conjugate in TBST (1 : 2500 dilution) to the samples followed by incubation for 3 h at RT on a shaker, or (b) samples without biotin were analyzed by adding 100 µL TBST containing the primary antibody as per the manufacturer's recommendation, incubating for 3 h at RT on a shaker, followed by washing the wells 4× with TBST. […] The reaction was stopped with 100 µL 2 M H2SO4 after incubating at RT for 0.5–15 min, resulting in a yellow color change, measured by absorbance at 450 nm. […]

Aβ40 = assay: ELISA, binding of biotinylated-HN to immobilised Aβ40; conditions: Aβ 100 nM on wells, biotinylated-HN 300 nM, increasing HS; three independent assays; Fig. 2B
Method: ELISAs were carried out as we previously reported. Nunc MaxiSorp 96‐well flat bottom plate (Thermo Fisher) wells were coated with samples as indicated. The plates were incubated overnight at 4 °C on a shaker to allow binding of the samples to the plate wells. After the incubation, the wells were washed 4× with TBST, filled with 400 µL blocking buffer (110 mM KCl, 5 mM NaHCO3, 5 mM MgCl2, 1 mM EGTA, 0.1 mM CaCl2, 20 mM HEPES, 1% BSA, pH 7.4), and incubated with shaking overnight at 4 °C. The wells were then washed 4× with TBST, and 100 µL of sample at the desired concentration was added to each well and incubated with shaking overnight at 4 °C. TBST was then used to wash the wells 4× before proceeding in one of two ways: (a) biotinylated samples were analyzed by adding 100 µL streptavidin–HRP conjugate in TBST (1 : 2500 dilution) to the samples followed by incubation for 3 h at RT on a shaker, or (b) samples without biotin were analyzed by adding 100 µL TBST containing the primary antibody as per the manufacturer's recommendation, incubating for 3 h at RT on a shaker, followed by washing the wells 4× with TBST. […] The reaction was stopped with 100 µL 2 M H2SO4 after incubating at RT for 0.5–15 min, resulting in a yellow color change, measured by absorbance at 450 nm. […] Statistical analysis was determined by the […] […] Data were expressed as the mean ± SD. […]

AChE-Aβ interaction = conditions: cited from earlier work
Description: Access to the central domain of Aβ (residues 17–24) flanked by Lys‐16 and Lys‐28, known to be a critical structural element in fibrillar Aβ aggregates, might be regulated by binding of AChE and HN to their overlapping binding sites on Aβ. […] Moreover, we s ...

Nc1ncnc2c1ncn2[C@@H]1O[C@H](COP(=O)(O)OP(=O)(O)OP(=O)(O)O)[C@@H](O)[C@H]1O [ATP, Adenosine triphosphate]
levels of HN bound to Aβ in the presence of ATP [1]: also comparable

heparan sulfate [HS]
effect of HS on binding of HN to Aβ40 (Aβ40): No effects

Humanin [HN]
effect of HN on binding of AChE to Aβ (AChE-Aβ interaction): it is not abolished

— PMC7714071, “Interaction of amyloid beta with humanin and acetylcholinesterase is modulated by ATP” (FEBS Open Bio, 2020)
